Assay in all cases: DHODH Inhibition Assay
Experiment [1] concerns the target T1, Dihydroorotate dehydrogenase (quinone), mitochondrial [100-517] (Plasmodium berghei (strain Anka), UniProt A0A509AEH5).
T1 construct: 100-517
T1 sequence (A0A509AEH5 whole entry): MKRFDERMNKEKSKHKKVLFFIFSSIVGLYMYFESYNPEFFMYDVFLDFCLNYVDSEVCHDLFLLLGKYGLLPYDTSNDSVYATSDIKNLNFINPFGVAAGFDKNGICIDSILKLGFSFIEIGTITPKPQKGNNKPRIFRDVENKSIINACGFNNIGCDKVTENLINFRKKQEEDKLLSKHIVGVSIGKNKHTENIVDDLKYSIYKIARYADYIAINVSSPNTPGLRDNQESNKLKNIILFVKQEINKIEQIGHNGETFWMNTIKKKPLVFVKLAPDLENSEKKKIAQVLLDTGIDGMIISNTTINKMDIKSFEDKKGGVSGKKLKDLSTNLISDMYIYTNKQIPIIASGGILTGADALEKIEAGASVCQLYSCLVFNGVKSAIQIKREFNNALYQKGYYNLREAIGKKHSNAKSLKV
On the procedure: (§1) The assays were carried out by using a colorimetric DCIP method, which uses the colorimetric reagent 2, 6-dichlorophenolindophenol as the final electron acceptor. DCIP reduction is stoichiometrically equivalent to oxidation of dihydroorotate. Changes in absorbance were quantified on a plate reader and data were analyzed to measure the reduction of DCIP as a decrease in absorbance at 600 nm.

Experiment [2] deals with T2, Dihydroorotate dehydrogenase (quinone), mitochondrial (Plasmodium falciparum (isolate 3D7), UniProt Q08210).
T2 sequence (Q08210 whole entry): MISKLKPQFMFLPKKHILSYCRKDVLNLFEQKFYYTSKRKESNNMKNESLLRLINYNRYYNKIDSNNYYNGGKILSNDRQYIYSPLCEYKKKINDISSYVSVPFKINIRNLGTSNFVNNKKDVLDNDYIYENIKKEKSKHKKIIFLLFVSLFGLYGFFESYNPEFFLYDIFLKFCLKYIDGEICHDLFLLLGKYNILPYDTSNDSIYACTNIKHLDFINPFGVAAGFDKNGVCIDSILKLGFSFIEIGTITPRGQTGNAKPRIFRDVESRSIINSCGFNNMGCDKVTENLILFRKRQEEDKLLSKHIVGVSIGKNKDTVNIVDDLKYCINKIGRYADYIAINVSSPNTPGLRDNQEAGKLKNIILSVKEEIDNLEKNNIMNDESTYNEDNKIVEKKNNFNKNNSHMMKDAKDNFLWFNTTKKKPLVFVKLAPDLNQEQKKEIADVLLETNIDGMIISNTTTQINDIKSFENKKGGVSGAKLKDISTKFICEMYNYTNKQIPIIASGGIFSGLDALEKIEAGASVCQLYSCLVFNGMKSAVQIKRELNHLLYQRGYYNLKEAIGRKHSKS
On the procedure:
as §1

The target in experiment [3] is T3, Dihydroorotate dehydrogenase (quinone), mitochondrial [30-395] (Homo sapiens, UniProt Q02127).
T3 construct: 30-395
T3 sequence (Q02127 30-395): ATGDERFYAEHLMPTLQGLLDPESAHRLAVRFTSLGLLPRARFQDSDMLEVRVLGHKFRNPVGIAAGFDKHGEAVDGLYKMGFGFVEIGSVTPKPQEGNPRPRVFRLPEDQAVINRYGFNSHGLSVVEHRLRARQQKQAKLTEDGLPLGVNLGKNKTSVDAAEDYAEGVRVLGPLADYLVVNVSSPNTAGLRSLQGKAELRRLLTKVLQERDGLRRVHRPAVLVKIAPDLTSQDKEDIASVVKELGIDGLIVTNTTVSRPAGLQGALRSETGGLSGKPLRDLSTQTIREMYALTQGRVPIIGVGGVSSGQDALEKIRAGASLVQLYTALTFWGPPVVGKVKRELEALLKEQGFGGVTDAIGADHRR
On the procedure: as §1

Data on 23 compounds can be found in BindingDB's records for doi:10.1021/jm801343r (University of Washington At Seattle, 2009).

For `Cc1cc(Nc2ccccc2C#N)n2ncnc2n1` [2-({5-methyl-[1,2,4]triazolo[1,5-a]pyrimidin-7-yl}amino)benzonitrile], the IC50 (in general, the midpoint of a concentration-inhibition curve) in experiment [1] was greater than 100 µM; in experiment [2] (pH 8, 20 °C), greater than 100 µM. On to `Cc1cc(Nc2c(F)c(F)c(F)c(F)c2F)n2ncnc2n1` [5-methyl-N-(2,3,4,5,6-pentafluorophenyl)-[1,2,4]triazolo[1,5-a]pyrimidin-7-amine], for which the IC50 in experiment [1] and in experiment [2] was greater than 100 µM throughout. On to `Cc1cc(Nc2ccc(F)c(F)c2F)n2ncnc2n1` [5-methyl-N-(2,3,4-trifluorophenyl)-[1,2,4]triazolo[1,5-a]pyrimidin-7-amine], for which the IC50 in experiment [1] was greater than 100 µM. With `Cc1cc(Nc2c(F)c(F)cc(F)c2F)n2ncnc2n1` [5-methyl-N-(2,3,5,6-tetrafluorophenyl)-[1,2,4]triazolo[1,5-a]pyrimidin-7-amine], the IC50 in experiment [1] is greater than 100 µM; in experiment [2] (pH 8, 20 °C), greater than 100 µM. As to `Cc1cc(Nc2cc(F)c(F)cc2F)n2ncnc2n1` [5-methyl-N-(2,4,5-trifluorophenyl)-[1,2,4]triazolo[1,5-a]pyrimidin-7-amine], the IC50 in experiment [1] was greater than 100 µM. In the case of `Cc1cc(Nc2c(F)cc(F)cc2F)n2ncnc2n1` [5-methyl-N-(2,4,6-trifluorophenyl)-[1,2,4]triazolo[1,5-a]pyrimidin-7-amine], the IC50 in experiment [1] was greater than 100 µM; in experiment [2] (pH 8, 20 °C), greater than 100 µM. Turning to `Cc1cc(Nc2ccccc2C)n2ncnc2n1` [5-methyl-N-(2-methylphenyl)-[1,2,4]triazolo[1,5-a]pyrimidin-7-amine], the IC50 was greater than 100 µM in experiment [1] and greater than 100 µM in experiment [2] (pH 8, 20 °C). Compound `Cc1cccc(Nc2cc(C)nc3ncnn23)c1` [5-methyl-N-(3-methylphenyl)-[1,2,4]triazolo[1,5-a]pyrimidin-7-amine] showed an IC50 in experiment [1] greater than 100 µM. In the case of `Cc1cc(Nc2ccccc2C(F)(F)F)n2ncnc2n1` [5-methyl-N-[2-(trifluoromethyl)phenyl]-[1,2,4]triazolo[1,5-a]pyrimidin-7-amine], the IC50 is greater than 100 µM in experiment [1] and greater than 100 µM in experiment [2] (pH 8, 20 °C).

As for `Cc1cc(Nc2ccc3ccccc3c2)n2ncnc2n1` [JMC521864 Compund DSM1], the IC50 in experiment [3] was greater than 200 µM. Take `Cc1cc(Nc2ccccc2)n2ncnc2n1` [JMC521864 Compund DSM12]: the IC50 in experiment [1] was greater than 10 µM; in experiment [2] (pH 8, 20 °C), greater than 200 µM; in experiment [3], greater than 200 µM. In turn, `Cc1cc(Nc2cccc(F)c2F)n2ncnc2n1` [N-(2,3-difluorophenyl)-5-methyl-[1,2,4]triazolo[1,5-a]pyrimidin-7-amine] came in with an IC50 in experiment [1] greater than 100 µM. As for `Cc1cc(Nc2cc(F)ccc2F)n2ncnc2n1` [N-(2,5-difluorophenyl)-5-methyl-[1,2,4]triazolo[1,5-a]pyrimidin-7-amine], the IC50 in experiment [1] is greater than 100 µM; in experiment [2] (pH 8, 20 °C) it was greater than 50 µM. With `Cc1cc(Nc2c(F)cccc2F)n2ncnc2n1` [N-(2,6-difluorophenyl)-5-methyl-[1,2,4]triazolo[1,5-a]pyrimidin-7-amine], the IC50 was greater than 100 µM in experiment [1] and greater than 100 µM in experiment [2] (pH 8, 20 °C).

Turning to `Cc1cc(Nc2ccccc2Cl)n2ncnc2n1` [N-(2-chlorophenyl)-5-methyl-[1,2,4]triazolo[1,5-a]pyrimidin-7-amine], the 50% inhibitory concentration (IC50) is greater than 100 µM in experiment [1] and greater than 100 µM in experiment [2] (pH 8, 20 °C). As to `Cc1ccc(Nc2cc(C)nc3ncnn23)c(F)c1` [N-(2-fluoro-4-methylphenyl)-5-methyl-[1,2,4]triazolo[1,5-a]pyrimidin-7-amine], the half-maximal inhibitory concentration (IC50) in experiment [1] was greater than 100 µM. Take `Cc1cc(Nc2ccccc2F)n2ncnc2n1` [N-(2-fluorophenyl)-5-methyl-[1,2,4]triazolo[1,5-a]pyrimidin-7-amine]: the concentration for half-maximal inhibition (IC50) in experiment [1] was greater than 100 µM; in experiment [2] (pH 8, 20 °C) it was greater than 100 µM. For `Cc1cc(Nc2cccc(F)c2)n2ncnc2n1` [N-(3-fluorophenyl)-5-methyl-[1,2,4]triazolo[1,5-a]pyrimidin-7-amine], the IC50 in experiment [1] was greater than 100 µM. As for `Cc1cc(Nc2ccc(Cc3ccccc3)cc2)n2ncnc2n1` [N-(4-benzylphenyl)-5-methyl-[1,2,4]triazolo[1,5-a]pyrimidin-7-amine], in experiment [1], the IC50 is greater than 100 µM. The same measure, in the same setting: then `Cc1cc(Nc2ccc(F)cc2)n2ncnc2n1` [N-(4-fluorophenyl)-5-methyl-[1,2,4]triazolo[1,5-a]pyrimidin-7-amine], with greater than 100 µM; and `COc1ccc(Nc2cc(C)nc3ncnn23)cc1` [N-(4-methoxyphenyl)-5-methyl-[1,2,4]triazolo[1,5-a]pyrimidin-7-amine], with greater than 50 µM. With `Cc1cc(Nc2ccc3cc4ccccc4cc3c2)n2ncnc2n1` [N-(anthracen-2-yl)-5-methyl-[1,2,4]triazolo[1,5-a]pyrimidin-7-amine], the IC50 in experiment [1] is 3.7 µM; in experiment [3] it was greater than 200 µM. In the case of `Cc1cc(Nc2cc(C(F)(F)F)cc(C(F)(F)F)c2)n2ncnc2n1` [N-[3,5-bis(trifluoromethyl)phenyl]-5-methyl-[1,2,4]triazolo[1,5-a]pyrimidin-7-amine], the half-maximal inhibitory concentration (IC50) in experiment [1] and in experiment [2] was greater than 100 µM in each case.
